Measurements as given in patent US12545643B2, “3,5-diaminobenzoic acid compound, and Pin1 inhibitor and therapeutic agent for inflammatory diseases using same” (Amenis Bioscience, Inc., priority 2020, dated 2026).

Legend:
SARS-CoV-2 = SARS-CoV-2 proliferation suppression study (nucleocapsid Western blot in VeroE6/TMPRSS2 cells); type: cell-based; conditions: for inhibition at 20 µM: Severe acute respiratory syndrome coronavirus 2, 20 μM, MOI 10, lysate 8 hours after infection, read-out: Inhibition rate (SARS-CoV-2 nucleocapsid band area)
Pin1 [1] = target: T1, Pin1 (Homo sapiens, UniProt Q13526); experiment: Cell-based assay of Pin1 inhibition (AMPK phosphorylation level as index, Western blot); set-up: endogenous in cells; host or cells: 293T cells; key: +++: a higher level of AMPK phosphorylation is promoted, as compared with C1; ++: a similar level of AMPK phosphorylation is promoted, as compared with C1; +: a lower level of AMPK phosphorylation is promoted, as compared with C1; −: no or almost no promotion is found in AMPK phosphorylation; conditions: 293T cells, compound at 50 μM, 10 mM 2-DG, pAMPK level compared with known Pin1 inhibitor C1
T1 sequence (Q13526 whole entry): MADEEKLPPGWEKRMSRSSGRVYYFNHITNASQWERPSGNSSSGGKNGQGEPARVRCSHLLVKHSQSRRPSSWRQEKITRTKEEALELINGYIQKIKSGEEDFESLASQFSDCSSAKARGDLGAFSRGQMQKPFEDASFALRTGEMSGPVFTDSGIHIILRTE
Experimental: To evaluate the inhibitory activity of each compound synthesized in Example 1 against the function of Pin1, a cell-based assay was performed according to the method previously developed by the inventors (Yusuke Nakatsu et al., Journal of Biological Chemistry, 2015, Vol. 290, No. 40, pp. 24255-24266), in which the phosphorylation level of AMPK (AMP-activated protein kinase), a protein whose phosphorylation is suppressed by Pin1, was examined as an index.
Briefly, 293T cells were plated on a collagen-coated 24-well plate. Forty-eight hours later, each compound synthesized in the preceding example (at 50 μM) was added to the plate, and the plate was left to stand in an incubator for 30 minutes. Subsequently, 10 mM 2-DG was added to the plate, and one hour later, each sample was collected with a buffer containing mercaptoethanol and SDS.
SDS-PAGE and blotting were performed, and blocking was then performed with 3% BSA for 1 hour, according to conventional protocols. Subsequently, a pAMPK antibody (Cell Signaling; diluted 1:2000 in Can Get Signal Solution 1, Toyobo) as a primary antibody, and an HRP-linked anti rabbit IgG (GE Healthcare; diluted 1:4000 in Can Get Signal Solution 2, Toyobo) as a secondary antibody were allowed to react at ambient temperature for 1 hour prior to detection.
The inhibitory activity against the function of Pin1 was evaluated as indicated below by comparing the inhibition levels between each compound and a known Pin1 inhibitor, C1 ((R)-2-(5-(4-methoxyphenyl)-2-methylfuran-3-carboxamido)-3-(naphthalene-6-yl) propanoic acid):
(+++): a higher level of AMPK phosphorylation is promoted, as compared with C1;
(++): a similar level of AMPK phosphorylation is promoted, as compared with C1;
(+): a lower level of AMPK phosphorylation is promoted, as compared with C1;
(−): no or almost no promotion is found in AMPK phosphorylation.

[2] = test system: non-alcoholic steatohepatitis (NASH) model mice; experiment: NASH treatment study in HFD-fed NASH model mice; type: in vivo; conditions: 5 mg/kg/day orally three times a week, 8 weeks
Experimental: Animal experiments were performed using non-alcoholic steatohepatitis (NASH) model mice to test the compounds according to the present invention for the therapeutic effect on NASH. NASH model mice (hereinafter referred to as “NASH mice”) were produced by feeding a high-fat and high-cholesterol diet containing palm oil (HFD) to individual 8-week-old male laboratory mice for 8 weeks. The mice were divided into groups during 8 weeks of the HFD-feeding period, and animal experiments were performed on a group of mice to which a compound according to the present invention (H-686) was administered orally at a dose of 5 mg/kg/day three times a week, and a group of mice to which nothing was administered. In addition, a normal diet was given to individual 8-week-old male laboratory mice for 8 weeks to prepare control mice. FIGS. 1 (A) and 1 (B) show the results of measurements of body weight and liver weight of these mice respectively. FIGS. 2 (A) and 2 (B) show the results of measurements of blood AST (GOT) concentration and blood ALT (GPT) concentration. respectively. Then FIGS. 3 (A) and 3 (B) show the results of measurements of mRNA expression levels of Colla1 (collagen, type I, alpha 1 chain) and Colla2 (collagen, type I, alpha 2 chain), respectively.

Pin1 [3] = target: T1, Pin1; experiment: Cell-free assay of peptidylprolyl isomerase activity (absorbance at 330 nm, substrate Suc-Ala-Glu-Pro-Phe-pNA); type: biochemical; conditions: compound 10 μM, Pin1 5 nM, substrate peptide 60 μM, 10° C.; read-out: Pin1 inhibition activity Cell-free assay (inhibition ratio)
Experimental: For some compounds synthesized in Example 1, the inhibitory activity against the function of Pin1 was measured by a cell-free assay based on the method by Janowski et al. (AnalyticalBiochemistry, 1997, Vol. 252, Issue 2, pp. 299-307) because there is an assay measuring peptidylprolylisomerase activity without cells (cell-free).
Briefly, an assay buffer (containing 35 mM HEPES, pH 7.8, 50 μM DTT and 0.0025% NP40) was equilibrated to 10° C. in a quartz cell with stirring function. To this solution was added the compound dissolved in DMSO (10 μM) and then UV spectrum of the resulting solution was immediately measured. Then Pin1 (final concentration of 5 nM) was added to the solution. The reaction was initiated by adding a substrate peptide (Suc-Ala-Glu-Pro-Phe-pNA) dissolved in 0.5 M LiCl solution in trifluoroethanol (final concentration of 60 μM). After reaction was initiated, the change of absorbance at 330 nm was measured for 5 minutes. The resultant reaction curve was fitted to a first order decay model to calculate the reaction rate. The catalytic reaction rate was calculated by subtracting the background rate from the reaction rate. The inhibition ratio (%) was calculated from the catalytic reaction rates in the presence and absence of the compound. The higher inhibition ratio means the higher inhibitory activity against Pin1 function.

NASH-induced mice = conditions: cited from earlier work

| SMILES | inhibition at 20 µM (SARS-CoV-2) | Pin1 inhibition activity Cell-based assay (Pin1 [1]) | inhibition at 10 µM (Pin1 [3]) | further results |
| --- | --- | --- | --- | --- |
| COC(=O)c1cc(NC(=O)c2cccnc2)cc(NC(=O)n2c3ccccc3c3ccccc32)c1 [Compound H-680] | 53% | − (Hydrolysis causes conversion to H-682) |  |  |
| COC(=O)c1cc(NC(=O)c2ccc3ccccc3n2)cc(NC(=O)n2c3ccccc3c3ccccc32)c1 [Compound H-684] | 66% | ++ (Hydrolysis causes conversion to H-688) |  |  |
| COC(=O)c1cc(NC(=O)c2cnc3ccccc3n2)cc(NC(=O)n2c3ccccc3c3ccccc32)c1 [Compound H-685] | 58% | + |  |  |
| COC(=O)c1cc(NC(=O)c2ccc3c(c2)OCCO3)cc(NC(=O)n2c3ccccc3c3ccccc32)c1 [Compound H-686] |  | ++ (Hydrolysis causes conversion to H-692) |  | body weight (weight gain) ([2]; FIG. 1 (A)): weight gain in the mice given H-686 was suppressed; liver weight (increase) ([2]; FIG. 1 (B)): the increase in liver weight was significantly suppressed; blood AST (GOT) concentration ([2]; FIG. 2 (A)): the AST value was decreased; blood ALT (GPT) concentration ([2]; FIG. 2 (B)): the ALT value was decreased; mRNA expression level of Colla1 (collagen, type I, alpha 1 chain) ([2]; FIG. 3 (A)): the expression level of Colla1 was suppressed; mRNA expression level of Colla2 (collagen, type I, alpha 2 chain) ([2]; FIG. 3 (B)): the suppression of the expression level was observed; fat accumulation in liver tissue (microscopic observation) ([2]; FIG. 4): suppressed fat accumulation |
| O=C(O)c1cc(NC(=O)c2ccc3ccccc3n2)cc(NC(=O)n2c3ccccc3c3ccccc32)c1 [Compound H-688] | 98% | ++ |  | suppressing effect against SARS-CoV-2 proliferation (SARS-CoV-2; 5 μM or 10 μM, MOI 10, 8 hours after infection, FIG. 5): observed to have a suppressing effect against SARS-CoV-2 proliferation |
| COC(=O)c1cc(NC(=O)COc2ccccn2)cc(NC(=O)n2c3ccccc3c3ccccc32)c1 [Compound H-762] | 83% | − (Hydrolysis causes conversion to H-763) |  |  |
| O=C(COc1ccccn1)Nc1cc(NC(=O)n2c3ccccc3c3ccccc32)cc(C(=O)O)c1 [Compound H-763] | 97% | − | 24.6% |  |
| O=C(CNC(=O)OCc1ccccc1)Nc1cc(NC(=O)n2c3ccccc3c3ccccc32)cc(C(=O)O)c1 [Compound H-769] |  | − | 15.9% |  |
| O=C(CN(c1ccccc1)c1ccccc1)Nc1cc(NC(=O)c2ccc3ccccc3c2)cc(C(=O)O)c1 [Compound H-819] | 95% |  | 62% |  |
| O=C(CN(c1ccccc1)c1ccccc1)Nc1cc(NC(=O)c2ccc3ccccc3n2)cc(C(=O)O)c1 [Compound H-821] | 95% |  | 94.4% |  |
| O=C1C=CC(=O)c2c(O)cccc21 [Juglone] |  |  |  | development of NASH (NASH-induced mice): ameliorates the development of NASH |
